According to patent US20250049930A1, “PROTAC MOLECULES TARGETING FOXP3 AND USES THEREOF” (CEDARS-SINAI MEDICAL CENTER, priority 2022, published 2025):
Residues, ends and D or L forms follow the SMILES beside them. *: point of attachment. X1 = O=C1CCC(N2C(=O)c3cccc(*)c3C2=O)C(=O)N1; PEG4 = NCCOCCOCCOCCOCCC(=O)O

Columns and labels:
[1] = tested on: RENCA tumors; assay: Subcutaneous RENCA tumor growth in mice; format: in vivo; details: s.c. RENCA in Balb/C mice, i.p. treatment from day 10, vs saline
Description: Mice: Balb/C mice, 5-8 weeks old, were purchased from Jackson laboratory (Ellsworth, Maine) and housed under pathogen free conditions. All experiments involving animals followed federal and state standards, which include the federal Animal Welfare Act and the NIH guide for the care and use of laboratory animals. The RENCA tumors were generated by subcutaneously injecting 2×10^5 tumor cells into the frank. The day tumor cells were injected was considered day 0. PF (0.1 mmol), PC (0.1 mmol) or P60 (100 ug) was administered i.p. twice a week starting on day 10; αPD1 (200 μg) was administered i.p. twice a week starting on day 5; temsirolimus (15 μg) was administered i.p. every other day, starting on day 10. All drugs were administered throughout the experimental course unless indicated. CD8 cells were depleted with a one-time αCD8 (200 μg) i.p. administration on day 2.
In cancer, Tregs can suppress the antitumor immune response, which is primarily mediated by CD8+ lymphocytes. Therefore, PF was administered to mice to enhance antitumor immunity and suppress growth of syngeneic mouse kidney cancer, which is considered an immunoresponsive cancer type. Mice tumors were established by injecting RENCA cells subcutaneously in the flank of Balb/C mice (5-7 mice per group). RENCA cells were injected subcutaneously to establish palpable tumors, and 10 days later mice were treated i.p., twice a week throughout the experiment, with PF, PC, P60 or Saline (FIG. 3D). Pomalidomide conjugated to (PEG)4 (PROTAC-control; PC) and P60 served as controls. […] In summary, PF decreased the immunosuppressive function of Tregs in vitro and decreased tumor growth in mice. […]
All immunotherapies, particularly when multi-drug combinations are involved, may have off-target effects. For example, drugs may have direct effects on the tumor, inhibiting tumor proliferation or inducing tumor apoptosis. Mice tumors were established by injecting RENCA cell subcutaneously in the flank of Balb/C mice (6-8 mice per group). 10 days later, mice were treated with PF twice per week. CD8 lymphocytes were depleted with αCD8 administered i.p. 2 days after injection of tumor cells. Mice in indicated groups received i.p. αPD1, twice a week, starting day 5 (FIG. 5A). Mice in indicated groups received i.p. temsirolimus every other day for 14 days, starting on days 10 (FIG. 5B). Tumor growth was monitored in these groups. […]

[2] = molecular target: T1, FoxP3 (Mus musculus, UniProt Q99JB6); assay: FoxP3 in CD4+ cells of mouse splenocytes treated in vitro, flow cytometry; format: cell-based
T1 construct: from tissue; host or cells: peripheral blood and spleen of mice
T1 sequence (Q99JB6 1-429): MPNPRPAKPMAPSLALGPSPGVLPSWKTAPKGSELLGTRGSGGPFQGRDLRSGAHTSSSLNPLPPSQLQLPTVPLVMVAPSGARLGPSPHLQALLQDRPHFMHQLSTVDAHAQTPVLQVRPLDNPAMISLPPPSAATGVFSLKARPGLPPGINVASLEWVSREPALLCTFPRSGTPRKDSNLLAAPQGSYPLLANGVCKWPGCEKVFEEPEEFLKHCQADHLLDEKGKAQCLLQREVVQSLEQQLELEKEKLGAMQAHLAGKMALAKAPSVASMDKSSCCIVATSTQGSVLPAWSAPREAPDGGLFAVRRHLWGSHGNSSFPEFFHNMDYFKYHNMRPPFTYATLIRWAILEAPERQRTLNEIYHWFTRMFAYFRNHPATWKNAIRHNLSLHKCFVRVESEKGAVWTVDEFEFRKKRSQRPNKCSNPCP
Description: FIGS. 2A-2E depict that a proteolysis-targeting chimera (PROTAC) targeting FoxP3 (PF) degraded FoxP3 in vitro and in vivo. P-FoxP3 forms a ternary complex with cereblon and FoxP3. Surface plasmon resonance (SPR) assay was used to measure the equilibrium dissociation constant (KD) for the ternary complex consisting of cereblon, P-FoxP3 and FoxP3 (FIG. 2A). SPR assay was used to measure the KD for the binary complex consisting of cereblon and P-FoxP3 (FIG. 2B). Mouse splenocytes were treated in vitro with varying PF concentrations and percent of CD4+ cells staining for intracellular FoxP3 was assessed by flow cytometry. (FIG. 2C). […] 72 hours later, FoxP3 positive CD4+ cells in peripheral blood and spleen were assessed by flow cytometry (FIG. 2D). FoxP3 positive CD4+ cells in peripheral blood were assessed by flow cytometry at various timepoints following PF administration (FIG. 2E). […]
To determine if PF results in the degradation of FoxP3, mouse splenocytes were treated in vitro with varying concentrations of PF and percent of CD4+ cells staining for intracellular FoxP3 was assessed by flow cytometry. […] 72 hours later, FoxP3 positive CD4+ cells in peripheral blood and spleen were assessed by flow cytometry. […] To understand the time course of FoxP3 decrease, serial blood draws were assessed after a single injection of PF (FIG. 2E). […]

## CSCC[C@H](NC(=O)[C@H](C)NC(=O)[C@H](Cc1ccccc1)NC(=O)[C@H](Cc1ccccc1)NC(=O)[C@@H]1CCCN1C(=O)[C@H](Cc1c[nH]c2ccccc12)NC(=O)[C@H](CCSC)NC(=O)[C@H](CCCCN)NC(=O)[C@H](CCCNC(=N)N)NC(=O)[C@H](Cc1ccccc1)NC(=O)[C@H](CO)NC(=O)[C@H](CCC(N)=O)NC(=O)[C@H](Cc1ccccc1)NC(=O)[C@H](CC(=O)O)NC(=O)[C@H](CCCNC(=N)N)NC(=O)CCOCCOCCOCCOCCNc1cccc2c1C(=O)N(C1CCC(=O)NC1=O)C2=O)C(=O)O (stereo partly shown) [PF, Pomalidomide-PEG4-RDFQSFRKMWPFFAM] ({X1-PEG4}-RDFQSFRKMWPFFAM-OH)
[1]
  tumor growth, single agent: produced a decrease in tumor growth
[1]; listed as P-FoxP3
  tumor growth, single agent: appeared to decrease tumor growth compared to saline control
[2]; fresh mouse splenocytes cultured with IL-2, 1 μm P-FoxP3, 7 days, vs without P-FoxP3
  FoxP3 in CD4+ cells: degraded FoxP3 in CD4+ cells
[2]; mouse splenocytes treated in vitro with varying PF concentrations
  percent of CD4+ cells staining for intracellular FoxP3: decreased in a dose-dependent manner
